Source: US9199946B2, “Pyrimidinone carboxamide inhibitors of endothelial lipase” (BRISTOL-MYERS SQUIBB COMPANY, priority 2012, dated 2015)
Like-named read-outs stand apart in the source and are kept apart here.

Biological target: T1, Endothelial lipase (EL) (Homo sapiens, UniProt Q9Y5X9)
T1 construct: HT-1080 cells, which were transformed by RAGE technology (Athersys) to overexpress endogenous EL; endogenous in cells; conditioned medium used as the enzyme source
T1 sequence (Q9Y5X9 21-500): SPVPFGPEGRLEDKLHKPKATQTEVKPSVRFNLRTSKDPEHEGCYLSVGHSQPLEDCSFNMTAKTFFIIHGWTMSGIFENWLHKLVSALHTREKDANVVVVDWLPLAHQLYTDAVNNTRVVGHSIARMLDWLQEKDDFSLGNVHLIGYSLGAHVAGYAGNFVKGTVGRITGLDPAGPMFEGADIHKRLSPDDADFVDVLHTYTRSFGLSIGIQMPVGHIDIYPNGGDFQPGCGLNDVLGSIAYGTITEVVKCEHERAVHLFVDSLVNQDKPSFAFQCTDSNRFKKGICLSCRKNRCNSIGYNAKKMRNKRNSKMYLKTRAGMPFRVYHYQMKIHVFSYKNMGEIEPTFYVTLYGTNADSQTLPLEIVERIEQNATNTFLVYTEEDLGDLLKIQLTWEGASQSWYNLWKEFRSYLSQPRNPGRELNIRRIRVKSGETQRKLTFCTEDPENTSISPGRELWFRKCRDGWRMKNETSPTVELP
Test: Endothelial lipase (EL) enzymatic assay with fluorescent substrate A10070 in DMPG vesicles
Format: biochemical
Protocol: Endothelial lipase activity was measured using a fluorescent substrate, A10070, (Invitrogen, CA) doped into an artificial vesicle containing DMPG (Avanti Polar Lipids) as the excipient. Vesicles were prepared by combining 285 μL of 1 mM DMPG in a 1:1 mixture of MeOH and CHCl3 with 15 μL of 1 mM A10070 in a 1:1 mixture of MeOH and CHCl3. The mixture was dried under nitrogen and resuspended in 150 μL of 50 mM HEPES pH 8.0 buffer containing 100 mM NaCl and 0.2 mM EDTA. The sample was allowed to sit at rt for 15 min and then was sonicated 3×4 mins on ice with a Branson Sonicator using duty cycle 1. This preparation provides vesicles with a mole fraction of 0.05 for the FRET substrate.
The enzymatic assay was measured using white, opaque 96-well half area plates. Each well contained 60 μL of assay buffer (50 mM HEPES pH 8.0, 50 mM NaCl and 1 mM CaCl2) and 2 ul of a DMSO solution containing compound of interest. Conditioned media obtained from HT-1080 cells, which were transformed by RAGE technology (Athersys) to overexpress endogenous EL, was added and the reaction was allowed to incubate for 20 min at 37° C. with gentle agitation. The reaction was started by the addition of 20 μL of a 1:4 dilution of vesicles. The final total reaction volume was 100 μL. The reaction rates were measured on a Gemini plate reader with an excitation wavelength of 488 nm and an emission of 530 nm. Readings were taken every 20 seconds for 10 min with agitation between each reading. The slope of the linear portion of the readout was used to calculate the rate of the reaction.

[1] = range observed in the EL assay, read-out: EL IC50 values
[2] = conditioned media from HT-1080 cells overexpressing endogenous EL, 20 min preincubation at 37° C., read-out: EL IC50

SMILES | IC50 [1] [µM] | IC50 [2] [µM]
Cn1c(C(=O)N[C@H]2CC[C@@H](c3ccccc3)CC2)c(O)c(=O)[nH]c1=O [Example 241, 5-Hydroxy-3-methyl-2,6-dioxo-N-(cis-4-phenylcyclohexyl)-1,2,3,6-tetrahydropyrimidine-4-carboxamide] | ≤ 10 | 
COc1ccc2c(c1)[C@H](NC(=O)c1[nH]c(=O)[nH]c(=O)c1O)CCC2 [Example 264, (R)-5-hydroxy-N-(7-methoxy-1,2,3,4-tetrahydronaphthalen-1-yl)-2,6-dioxo-1,2,3,6-tetrahydropyrimidine-4-carboxamide] | ≤ 10 | 
COc1cccc2c1CCC[C@H]2NC(=O)c1[nH]c(=O)[nH]c(=O)c1O [Example 261, (R)-5-hydroxy-N-(5-methoxy-1,2,3,4-tetrahydronaphthalen-1-yl)-2,6-dioxo-1,2,3,6-tetrahydropyrimidine-4-carboxamide] | ≤ 10 | 
Nc1c(C(=O)N[C@H]2CCc3ccc(C(F)(F)F)cc32)[nH]c(=O)[nH]c1=O [Example 15, (S)-5-amino-2,6-dioxo-N-(6-(trifluoromethyl)-2,3-dihydro-1H-inden-1-yl)-1,2,3,6-tetrahydropyrimidine-4-carboxamide] |  | 13
O=C(N[C@H]1CC[C@@H](c2ccccc2)CC1)c1[nH]c(=O)[nH]c(=O)c1NCc1cccnc1 [Example 209, 2,6-dioxo-N-(cis-4-phenylcyclohexyl)-5-(pyridin-3-ylmethylamino)-1,2,3,6-tetrahydropyrimidine-4-carboxamide] | ≤ 10 | 0.512
COCCNc1c(C(=O)N[C@H]2CC[C@@H](c3ccccc3)CC2)[nH]c(=O)[nH]c1=O [Example 214, 5-(2-methoxyethylamino)-2,6-dioxo-N-(cis-4-phenylcyclohexyl)-1,2,3,6-tetrahydropyrimidine-4-carboxamide] | ≤ 10 | 
O=C(N[C@H]1CC[C@@H](C(=O)N[C@@H]2CCCc3c(OCc4ccccc4)cccc32)C1)c1[nH]c(=O)[nH]c(=O)c1O [Example 263, N-((1S,3R)-3-((R)-5-(benzyloxy)-1,2,3,4-tetrahydronaphthalen-1-ylcarbamoyl)cyclopentyl)-5-hydroxy-2,6-dioxo-1,2,3,6-tetrahydropyrimidine-4-carboxamide] | ≤ 10 | 
COc1ccc2c(c1)C(NC(=O)c1[nH]c(=O)[nH]c(=O)c1N)CC2 (stereo not drawn) [Example 11, 5-amino-N-(6-methoxy-2,3-dihydro-1H-inden-1-yl)-2,6-dioxo-1,2,3,6-tetrahydropyrimidine-4-carboxamide] | ≤ 10 | 
COc1cccc2c1CCCC2NC(=O)c1[nH]c(=O)[nH]c(=O)c1N (stereo not drawn) [Example 47, 5-amino-N-(5-methoxy-1,2,3,4-tetrahydronaphthalen-1-yl)-2,6-dioxo 1,2,3,6-tetrahydropyrimidine-4-carboxamide] | ≤ 10 | 
O=C(N[C@H]1CC[C@@H](c2ccccc2)CC1)c1[nH]c(=O)[nH]c(=O)c1NCCCc1ccccc1 [Example 207, 2,6-dioxo-N-(cis-4-phenylcyclohexyl)-5-(3-phenylpropylamino)-1,2,3,6-tetrahydropyrimidine-4-carboxamide] | ≤ 10 | 
O=C(N[C@H]1CC[C@@H](c2ccccc2)CC1)c1[nH]c(=O)[nH]c(=O)c1NC1CCCC1 [Example 208, 5-(cyclopentylamino)-2,6-dioxo-N-(cis-4-phenylcyclohexyl)-1,2,3,6-tetrahydropyrimidine-4-carboxamide] | ≤ 10 | 0.659
COc1ccc2c(c1)CC[C@H]2NC(=O)c1[nH]c(=O)[nH]c(=O)c1N [Example 70, (R)-5-amino-N-(5-methoxy-2,3-dihydro-1H-inden-1-yl)-2,6-dioxo-1,2,3,6-tetrahydropyrimidine-4-carboxamide] | ≤ 10 | 
Cc1ccc(-c2ccc([C@@H]3CC[C@H](NC(=O)c4[nH]c(=O)[nH]c(=O)c4N)C3)cc2)cc1 [Example 169, 5-amino-N-((1S,3R)-3-(4′-methylbiphenyl-4-yl)cyclopentyl)-2,6-dioxo-1,2,3,6-tetrahydropyrimidine-4-carboxamide] | ≤ 10 | 
Nc1c(C(=O)N[C@@H]2CCCc3c(NCc4ccccc4)cccc32)[nH]c(=O)[nH]c1=O [Example 123, (R)-5-amino-N-(5-(benzylamino)-1,2,3,4-tetrahydronaphthalen-1-yl)-2,6-dioxo-1,2,3,6-tetrahydropyrimidine-4-carboxamide] | ≤ 10 | 
COc1ccc(-c2ccc([C@@H]3CC[C@H](NC(=O)c4[nH]c(=O)[nH]c(=O)c4N)C3)cc2)cc1 [Example 168, 5-amino-N-((1S,3R)-3-(4′-methoxybiphenyl-4-yl)cyclopentyl)-2,6-dioxo-1,2,3,6-tetrahydropyrimidine-4-carboxamide] | ≤ 10 | 
Nc1c(C(=O)N[C@@H]2CCCc3c(OCC(F)(F)F)cccc32)[nH]c(=O)[nH]c1=O [Example 36, (R)-5-amino-2,6-dioxo-N-(5-(2,2,2-trifluoroethoxy)-1,2,3,4-tetrahydronaphthalen-1-yl)-1,2,3,6-tetrahydropyrimidine-4-carboxamide] | ≤ 10 | 
Nc1c(C(=O)N[C@@H]2CCC[C@@H]2c2ccc(Cl)cc2)[nH]c(=O)[nH]c1=O [Example 64, 5-amino-N-((1R,2R)-2-(4-chlorophenyl)cyclopentyl)-2,6-dioxo-1,2,3,6-tetrahydropyrimidine-carboxamide] | ≤ 10 | 
COC(=O)[C@@H]1C[C@@H](NC(=O)c2[nH]c(=O)[nH]c(=O)c2N)c2ccccc2[C@H]1c1ccccc1 [Example 23, (1R,2R,4R)-methyl 4-(5-amino-2,6-dioxo-1,2,3,6-tetrahydropyrimidine-4-carboxamido)-1-phenyl-1,2,3,4-tetrahydronaphthalene-2-carboxylate] | ≤ 10 | 
O=C(N[C@H]1CC[C@@H](c2ccccc2)CC1)c1[nH]c(=O)[nH]c(=O)c1N[C@@H]1C[C@H]2CC[C@@H]1C2 [Example 231, 5-((1R,2R,4S)-bicyclo[2.2.1]heptan-2-ylamino)-2,6-dioxo-N-(cis-4-phenylcyclohexyl)-1,2,3,6-tetrahydropyrimidine-4-carboxamide] | ≤ 10 | 3.84
O=C(N[C@@H]1CCC[C@@H](c2ccccc2)C1)c1[nH]c(=O)[nH]c(=O)c1O [Example 278, 5-hydroxy-2,6-dioxo-N-((1R,3R)-3-phenylcyclohexyl)-1,2,3,6-tetrahydropyrimidine-4-carboxamide] | ≤ 10 | 
Nc1c(C(=O)N[C@H]2CC[C@@H](c3ccc(-c4ccc(CO)cc4)cc3)C2)[nH]c(=O)[nH]c1=O [Example 177, 5-amino-N-((1S,3R)-3-(4′-(hydroxymethyl)biphenyl-4-yl)cyclopentyl)-2,6-dioxo-1,2,3,6-tetrahydropyrimidine-4-carboxamide] | ≤ 10 | 
COc1ccc2c(c1)C(NC(=O)c1[nH]c(=O)[nH]c(=O)c1N)CC2 (single isomer, unassigned) [Example 72, 5-amino-N-(6-methoxy-2,3-dihydro-1H-inden-1-yl)-2,6-dioxo-1,2,3,6-tetrahydropyrimidine-4-carboxamide] |  | 22.2
Nc1c(C(=O)N[C@H]2CCCc3c2cccc3C(F)(F)F)[nH]c(=O)[nH]c1=O [Example 50, (S)-5-amino-2,6-dioxo-N-(5-(trifluoromethyl)-1,2,3,4-tetrahydronaphthalen-1-yl)-1,2,3,6-tetrahydropyrimidine-4-carboxamide] | ≤ 10 | 
Nc1c(C(=O)N[C@@H]2CCCc3c2cccc3C(F)(F)F)[nH]c(=O)[nH]c1=O [Example 49, (R)-5-amino-2,6-dioxo-N-(5-(trifluoromethyl)-1,2,3,4-tetrahydronaphthalen-1-yl)-1,2,3,6-tetrahydropyrimidine-4-carboxamide] | ≤ 10 | 
Nc1c(C(=O)N[C@@H]2CC[C@H](c3ccc(-c4cnn(CCN5CCOCC5)c4)cc3)C2)[nH]c(=O)[nH]c1=O [Example 164, 5-amino-N-((1R,3S)-3-(4-(1-(2-morpholinoethyl)-1H-pyrazol-4-yl)phenyl)cyclopentyl)-2,6-dioxo-1,2,3,6-tetrahydropyrimidine-4-carboxamide] | ≤ 10 | 0.788
Nc1c(C(=O)N[C@@H]2CC[C@@H](c3ccccc3)C2)[nH]c(=O)[nH]c1=O [Example 77, 5-amino-2,6-dioxo-N-((1R,3R)-3-phenylcyclopentyl)-1,2,3,6-tetrahydropyrimidine-4-carboxamide] | ≤ 10 | 
